Measurements as given in patent US5240961A, “Method of treating reduced insulin-like growth factor and bone loss associated with aging” (priority 1992, dated 1993).
Where “and” joins values, the source holds several entries; their conditions need not be identical. Identical values can stand only once. Entries after “also recorded” stand apart in the source; their conditions may differ. Like-named read-outs stand apart in the source and are kept apart here.

Assays:
[1] = Serum carnitine at 12 weeks in adult mice fed L-carnitine, acetyl carnitine or γ-butyrobetaine; set-up: species or system mouse (BALB/c male); conditions: mouse, in vivo, po, Serum carnitine
Experimental: (§1) The present invention is further explained by the following examples which should not be construed by way of limiting the scope of the present invention. In the following examples, serum carnitine levels were determined by the method of R. Parvin et al., Anal. Biochem., vol. 79 (1979) pp. 190-201. Serum IGF-1 concentrations were measured by immunoradiometric assay, for example, by IRMA Kit available from Diagnostic Systems Laboratories, Inc., Webster, Texas. Serum osteocalcin levels were measured according to the method of Grunaberg et al., Meth. Enzymology, vol 107 (1984) 516, and which is embodied in an osteocalcin kit available from Biomedical Technologies, Inc., Stoughton, Mass. All mice used in the animal studies were BALB/c strain which is commercially available.
(§2) Tests were performed to compare the effects on serum osteocalcin of diet supplementation with L-carnitine, its precursor, γ-butyrobetaine (available from Aldrich Chemical Co.) and one of its metabolites, acetylcarnitine (available from Life Science Resources, Milwaukee, Wis. 53223). Twenty adult mice, i.e., three months of age, (BALB/c male mice) were divided into seven groups. Each of the groups was fed diets as indicated hereinbelow for twelve weeks. One group (n=3) was fed a diet with L-carnitine supplementation at a dose of 50 mg/kg of body weight each day, while the second group (n=3) was fed L-carnitine at a daily dose of about 100 mg/kg. The third group (n=2) was fed a diet with acetylcarnitine supplementation at a daily dose of 50 mg/kg, while the fourth group (n=3) was fed a daily dose of 100 mg/kg of this compound. The fifth group (n=2) was fed a daily dose of 50 mg/kg of γ-butyrobetaine supplementation,while the sixth group was fed a daily dose of 100 mg/kg of γ-butyrobetaine. The seventh group (n=4) was fed normal, unsupplemented feed (control). Mouse blood was sampled prior to beginning of the trial (pretreatment), at six weeks, and at the end of the trial (twelve weeks). The samples were evaluated for serum osteocalcin levels at six and twelve weeks. Total carnitine was determined at twelve weeks.

serum IGF-1 = assay: Serum IGF-1 after oral L-carnitine, double-blind study in patients over 60 (Example 5); type: in vivo, human; conditions: for IGF-1: individual subjects 010-019, 2 g/day oral; for average serum IGF-1: treatment group average
Experimental: as §1
Nineteen patients (over age 60) were enrolled in a preliminary double-blindstudy to establish the effect of oral L-carnitine treatment on serum IGF-1 and osteocalcin levels. Baseline, i.e., pretreatment, levels of serum IGF-1, osteocalcin and carnitine were measured by known methods. The patients were divided into two groups, control (n=9; subjects 001-009 in Table 5 below) and treatment (n=10; subjects 010-019 in Table 5 below). The treatment group received a daily dosage of 2 g of L-carnitine orally, self-administered, in four separate doses of two 250 mg tablets taken four times per day, for twelve weeks. The control group were given placebo, e.g., simple sugar. Serum samples were drawn every four weeks, and serum carnitine, IGF-1 and osteocalcin were determined.

serum carnitine = assay: Serum carnitine levels in aged mice fed L-carnitine; type: in vivo, mouse (BALB/c); conditions: 50 mg/kg/day
Experimental: as §1
(§3) Forty aged mice were separated into two groups. After an initial acclimatizing period of one week, one group was fed a diet with L-carnitine supplementation for six weeks and the other was fed normal, unsupplemented feed (control). Each mouse in the test group was fed a daily oral dose of L-carnitine of about 50 mg/kg of body weight. The average daily food for each mouse was determined by weighing the food initially placed in the food bin and weighing the remaining food. The feed was supplemented with L-carnitine so that each mouse in the test group consumed the test dose (50 mg/kg) of L-carnitine each day. Mouse blood was sampled prior to beginning of the trial (pretreatment), at the end of three weeks, and at six weeks (posttreatment), and was evaluated for serum osteocalcin and carnitine levels.

[2] = as above; type: in vivo, mouse (BALB/c); conditions: mouse, serum, po, 50 mg/kg/day, 50 mg/kg/day oral, six weeks
Experimental: as §1, §3

serum osteocalcin [3] = assay: Comparative effects of L-carnitine, acetyl carnitine and γ-butyrobetaine on serum osteocalcin in adult mice; type: in vivo, mouse (BALB/c male); conditions: for Osteocalcin: actual intake estimated about half
Experimental: as §1, §2

serum osteocalcin [4] = assay: Osteocalcin response to L-carnitine in young mice; type: in vivo, mouse (BALB/c)
Experimental: as §1
Similar tests were performed on six young mice, i.e., 2 months 5 months of age. One group (n=3) was fed a diet with L-carnitine supplementation for three months, the other (n=3) was fed normal, unsupplemented feed (control). Each mouse in the test group was fed a daily oral dose of L-carnitine of about 50 mg/kg of body weight. Mouse blood was sampled prior to beginning of the trial (pretreatment) i.e., at two months of age, and at 5 months of age, and was evaluated for serum osteocalcin and carnitine levels.

## C[N+](C)(C)C[C@H](O)CC(=O)[O-] [L-carnitine]
[1]; 50 mg/kg/day, Free
  concentration at 2016 h: 52.1 µM
[1]; 50 mg/kg/day, Total
  concentration at 2016 h: 66 µM
[1]; 100 mg/kg/day, Free
  concentration at 2016 h: 41.6 µM
[1]; 100 mg/kg/day, Total
  concentration at 2016 h: 59.5 µM
Serum IGF-1; eight and twelve weeks
  IGF-1 vs control at eight and twelve weeks, significance: just below significance
Serum IGF-1; five treated patients with pretreatment IGF-1 under 200 ng/ml, four weeks
  correlation between pretreatment IGF-1 and increase in IGF-1: -0.654
Serum IGF-1; four, eight and twelve week intervals, 1 unit=240 ng
  serum IGF-1 after treatment: above 500 U/L
Serum IGF-1; 4 weeks
  IGF-1: 118 ng/mL and 192 ng/mL and 62 ng/mL and 213 ng/mL and 305 ng/mL and 318 ng/mL and 185 ng/mL and 178 ng/mL and 244 ng/mL and 173 ng/mL
Serum IGF-1; 8 weeks
  IGF-1: 147 ng/mL and 197 ng/mL and 248 ng/mL and 157 ng/mL and 329 ng/mL and 201 ng/mL and 163 ng/mL and 168 ng/mL
Serum IGF-1; 12 weeks
  IGF-1: 108 ng/mL and 157 ng/mL and 179 ng/mL and 260 ng/mL and 185 ng/mL and 207 ng/mL
Serum IGF-1; eight weeks
  average serum IGF-1: 200.8 ng/mL
Serum IGF-1; four weeks
  average serum IGF-1: 214.0 ng/mL
Serum IGF-1; twelve weeks
  average serum IGF-1: 193.7 ng/mL
Serum IGF-1; twelve week test period
  IGF-1 response: increased in the carnitine treatment group; also recorded: the lower the baseline level of IGF-1, the greater the increase in IGF-1; also recorded: restored and maintained IGF-1 levels at the normal range
Serum carnitine
  carnitine levels vs control group: higher carnitine levels than the control group
[2]; read-out: Serum Carnitine, Free
  concentration at 1008 h: 57 ± 9.7 µM
[2]; read-out: Serum Carnitine, Total
  concentration at 1008 h: 80.2 ± 9.5 µM
Serum osteocalcin [3]; 50 mg/kg/day
  significance of difference in osteocalcin vs control (p, student's t test): < 0.01
Serum osteocalcin [3]; 50 mg/kg/day, 6 wks
  Osteocalcin: 151 ng/mL and 151 ± 4 ng/mL
Serum osteocalcin [3]; 50 mg/kg/day, 12 wks
  Osteocalcin: 153 ng/mL
Serum osteocalcin [3]; 100 mg/kg/day
  significance of difference in osteocalcin vs control (p, student's t test): < 0.05
Serum osteocalcin [3]; 100 mg/kg/day, 6 wks
  Osteocalcin: 199 ng/mL and 199 ± 7 ng/mL
Serum osteocalcin [3]; 100 mg/kg/day, 12 wks
  Osteocalcin: 115 ng/mL
Serum osteocalcin [3]; adult mice, 50 and 100 mg/kg/day
  effect on osteocalcin: stimulate osteocalcin production in adult mice; also recorded: maintained osteocalcin blood levels
Serum osteocalcin [4]; 5 mos., 50 mg/kg/day oral for three months
  Osteocalcin: 256 ng/mL
Serum osteocalcin [4]; five months, 50 mg/kg/day
  osteocalcin vs control: maintained a higher level of osteocalcin at five months
